Measurements taken from US8871756B2 (Hoffmann-La Roche Inc., priority 2011, dated 2014).
Counter-ions that a name gives are not always drawn.

System: RSV Long strain
Experiment: Viral cytopathic effect (CPE) assay, anti-RSV activity
Assay type: cell-based, Respiratory Syncytial Virus
Conditions: human respiratory syncytial virus, 144 h, RSV Long strain (ATCC); cell viability after 6 days, Cell Counting kit-8
Procedure: Viral cytopathic effect (CPE) assay: To measure anti-RSV activity of compounds, 96-well plates are seeded with 6×10^3 cells per well in Dulbecco's modified Eagle's medium (DMEM) containing 10% fetal bovine serum (FBS). Cells are infected the next day with sufficient RSV Long strain (ATCC) to produce an approximately 80-90% cytopathic effect after 6 days, in the presence of serial half-log diluted compound in a total volume of 200 μL per well. The viability of cells is assessed after 6 days using Cell Counting kit-8 (Dojindo Molecular Technologies). The absorbance at 450 nm and referenced at 630 nm is measured to determine 50% effective concentration (EC50).
The compounds of the present invention were tested for their anti-RSV activity, and the activation as described herein. The Examples were tested in the above assay and found to have EC50 of about 0.0001 μM to about 10 μM.

SMILES	EC50
Cc1ccc2nc(N3CCS(=O)(=O)c4cc(F)ccc4C3)cc(NCC3(CN)COC3)c2c1 [Example 3-1, N-{[3-(Aminomethyl)oxetan-3-yl]methyl}-2-(8-fluoro-1,1-dioxido-2,3-dihydro-1,4-benzothiazepin-4(5H)-yl)-6-methylquinolin-4-amine]	0.006 µM
Cc1ccc2nc(N3CCC(F)(F)c4ccccc4C3)cc(N3C[C@@H](N)[C@H](O)C3)c2c1 (relative stereo) [Example 111-11, trans-4-Amino-1-[2-(5,5-difluoro-1,3,4,5-tetrahydro-2H-2-benzazepin-2-yl)-6-methylquinolin-4-yl]pyrrolidin-3-ol]	0.588 µM
Cc1ccc2nc(N3CCC(F)(F)c4ccccc4C3)cc(NCCCN)c2c1 [Example 111-9, N-[2-(5,5-Difluoro-1,3,4,5-tetrahydro-2H-2-benzazepin-2-yl)-6-methylquinolin-4-yl]propane-1,3-diamine]	0.047 µM
[2H]C([2H])([2H])c1ccc2nc(N3CCS(=O)(=O)c4ccccc4C3)cc(NCC3(CN)COC3)c2c1 [Example 3-65, N-{[3-(Aminomethyl)oxetan-3-yl]methyl}-2-(1,1-dioxido-2,3-dihydro-1,4-benzothiazepin-4(5H)-yl)-6-trideuteriomethylquinolin-4-amine]	0.002 µM
Cc1cccc2nc(N3CCS(=O)(=O)c4ccccc4C3)cc(NCCCN)c12 [Example 17-6, N-[2-(1,1-Dioxido-2,3-dihydro-1,4-benzothiazepin-4(5 H)-yl)-5-methylquinolin-4-yl]propane-1,3-diamine]	0.086 µM
Cc1ccc2nc(N3CCS(=O)(=O)c4ccccc4C3)nc(NCC(F)(F)CN)c2c1 [Example 56-4, N-[2-(1,1-Dioxido-2,3-dihydro-1,4-benzothiazepin-4(5H)-yl)-6-methylquinazolin-4-yl]-2,2-difluoropropane-1,3-diamine]	0.027 µM
NC1(CNc2cc(N3CCSc4ccccc4C3)nc3ccc(Cl)cc23)COC1 [Example 4-1, N-[(3-Aminooxetan-3-yl)methyl]-6-chloro-2-(2,3-dihydro-1,4-benzothiazepin-4(5H)-yl)quinolin-4-amine]	0.269 µM
NCCNS(=O)(=O)c1cc(N2CCCc3ccccc3C2)nc2ccccc12 [Example 132, N-(2-Aminoethyl)-2-(1,3,4,5-tetrahydro-2H-2-benzazepin-2-yl)quinoline-4-sulfonamide trifluoroacetate]	7.81 µM
Clc1ccc2nc(N3CCCc4ccccc4C3)ccc2c1 [Example 130-1, 2-(6-Chloroquinolin-2-yl)-2,3,4,5-tetrahydro-1H-2-benzazepine]	6.84 µM
Cc1ccc2nc(N3CCS(=O)(=O)c4ccccc4C3)cc(N3CCC(C(N)=O)C3)c2c1 (centres unmarked) [Example 79, 1-[2-(1,1-Dioxido-2,3-dihydro-1,4-benzothiazepin-4(5H)-yl)-6-methylquinolin-4-yl]pyrrolidine-3-carboxamide]	2.79 µM
Cc1ccc2nc(N3CCC(F)(F)c4ccccc4C3)cc(NCCS(=O)(=O)CCN)c2c1 [Example 113, N-{2-[(2-Aminoethyl)sulfonyl]ethyl}-2-(5,5-difluoro-1,3,4,5-tetrahydro-2H-2-benzazepin-2-yl)-6-methylquinolin-4-amine]	0.733 µM
Cc1ccc2nc(N3CCS(=O)(=O)c4ccccc4C3)cc(N(CCO)CCO)c2c1 [Example 11-2, 2,2′-{[2-(1,1-Dioxido-2,3-dihydro-1,4-benzothiazepin-4(5H)-yl)-6-methylquinolin-4-yl]imino}diethanol]	7.02 µM
NCCCc1cc(N2CCCc3ccccc3C2)nc2ccccc12 [Example 128, 3-[2-(1,3,4,5-Tetrahydro-2H-2-benzazepin-2-yl)quinolin-4-yl]propan-1-amine]	7.17 µM
Cc1ccc2nc(N3CCS(=O)(=O)c4ccccc4C3)cc(N3CCC(C)(N)C3)c2c1 (centres unmarked) [Example 64, 1-[2-(1,1-Dioxido-2,3-dihydro-1,4-benzothiazepin-4(5H)-yl)-6-methylquinolin-4-yl]-3-methylpyrrolidin-3-amine]	0.035 µM
CCNC1(CNc2cc(N3CCS(=O)(=O)c4ccccc4C3)nc3ccc(C)cc23)COC1 [Example 43, 2-(1,1-Dioxido-2,3-dihydro-1,4-benzothiazepin-4(5H)-yl)-N-{[3-(ethylamino)oxetan-3-yl]methyl}-6-methylquinolin-4-amine]	0.017 µM
Cc1ccc2nc(N3CCS(=O)(=O)c4ccccc4C3)cc(CC[C@@H]3COC(N)=N3)c2c1 [Example 94, (4R)-4-{2-[2-(1,1-Dioxido-2,3-dihydro-1,4-benzothiazepin-4(5H)-yl)-6-methylquinolin-4-yl]ethyl}-4,5-dihydro-1,3-oxazol-2-amine]	6.53 µM
COc1ccc2c(c1)S(=O)(=O)CCN(c1cc(NCC3(CN)COC3)c3cc(Cl)ccc3n1)C2 [Example 3-14, N-{[3-(Aminomethyl)oxetan-3-yl]methyl}-6-chloro-2-(8-methoxy-1,1-dioxido-2,3-dihydro-1,4-benzothiazepin-4(5H)-yl)quinolin-4-amine]	0.017 µM
Cc1ccc2nc(N3CCS(=O)(=O)c4ccccc4C3)nc(NCC3(N)CC3)c2c1 [Example 135-1, N-[(1-Aminocyclopropyl)methyl]-2-(1,1-dioxido-2,3-dihydro-1,4-benzothiazepin-4(5H)-yl)-6-methylquinazolin-4-amine]	0.006 µM

Other lines, results leading:

EC50	SMILES
0.01 µM	Cc1ccc2nc(N3CCS(=O)(=O)c4ccccc4C3)cc(NCC3CN=C(N)O3)c2c1 (centres unmarked) [Example 38-1, N-[(2-Amino-4,5-dihydro-1,3-oxazol-5-yl)methyl]-2-(1,1-dioxido-2,3-dihydro-1,4-benzothiazepin-4(5H)-yl)-6-methylquinolin-4-amine]
0.01 µM	Cc1ccc2nc(N3CCS(=O)(=O)c4ccccc4C3)cc(NC(C)CN)c2c1 (centres unmarked) [Example 9-18, N^˜2^˜-[2-(1,1-Dioxido-2,3-dihydro-1,4-benzothiazepin-4(5H)-yl)-6-methylquinolin-4-yl]propane-1,2-diamine]
4.66 µM	Cc1ccc2nc(N3CCS(=O)(=O)c4ccccc4C3)cc(NC(=O)C(C)(C)N)c2c1 [Example 40-2, N-[2-(1,1-Dioxido-2,3-dihydro-1,4-benzothiazepin-4(5H)-yl)-6-methylquinolin-4-yl]-2-methylalaninamide]
0.001 µM	Cc1ccc2nc(N3CCS(=O)(=O)c4ccccc4C3)cc(N[C@H]3CNC[C@H]3O)c2c1 (relative stereo) [Example 28-4, cis-4-{[2-(1,1-Dioxido-2,3-dihydro-1,4-benzothiazepin-4(5H)-yl)-6-methylquinolin-4-yl]amino}pyrrolidin-3-ol]
0.069 µM	Cc1ccc2nc(N3CCS(=O)(=O)c4ccccc4C3)cc(NC(CO)CO)c2c1 [Example 11-1, 2-{[2-(1,1-Dioxido-2,3-dihydro-1,4-benzothiazepin-4(5H)-yl)-6-methylquinolin-4-yl]amino}propane-1,3-diol]
0.74 µM	Cc1ccc2nc(N3CCS(=O)(=O)c4ccccc4C3)cc(N[C@@H]3CCC[C@H]3N)c2c1 (relative stereo) [Example 15-5, trans-N-[2-(1,1-Dioxido-2,3-dihydro-1,4-benzothiazepin-4(5H)-yl)-6-methylquinolin-4-yl]cyclopentane-1,2-diamine]
0.118 µM	Cc1ccc2nc(N3CCS(=O)(=O)c4ccccc4C3)cc(NC(=O)C3CCCNC3)c2c1 (centres unmarked) [Example 3-61, N-[2-(1,1-Dioxido-2,3-dihydro-1,4-benzothiazepin-4(5H)-yl)-6-methylquinolin-4-yl]piperidine-3-carboxamide]
9.19 µM	Cc1ccc2nc(N3CCS(=O)(=O)c4ccccc4C3)cc(C(=O)C3CCNCC3)c2c1 [Example 100, [2-(1,1-Dioxido-2,3-dihydro-1,4-benzothiazepin-4(5H)-yl)-6-methylquinolin-4-yl](piperidin-4-yl)methanone]
2.63 µM	COC(C)(C)C(=O)Nc1cc(N2CCS(=O)(=O)c3ccccc3C2)nc2ccc(C)cc12 [Example 41, N-[2-(1,1-Dioxido-2,3-dihydro-1,4-benzothiazepin-4(5H)-yl)-6-methylquinolin-4-yl]-2-methoxy-2-methylpropanamide]
0.25 µM	Cc1ccc2nc(N3CCS(=O)(=O)c4ccccc4C3)cc(N3C[C@@H](N)[C@H](F)C3)c2c1 (relative stereo) [Example 78-2, trans-1-[2-(1,1-Dioxido-2,3-dihydro-1,4-benzothiazepin-4(5H)-yl)-6-methylquinolin-4-yl]-4-fluoropyrrolidin-3-amine]
0.099 µM	Cc1ccc2nc(N3CCS(=O)(=O)c4ccccc4C3)cc(N[C@@H]3CCOC3)c2c1 [Example 3-49, 2-(1,1-Dioxido-2,3-dihydro-1,4-benzothiazepin-4(5H)-yl)-6-methyl-N-[(3R)-tetrahydrofuran-3-yl]quinolin-4-amine]
0.835 µM	Cc1ccc2nc(N3CCS(=O)(=O)c4ccccc4C3)cc(NC(=O)C3CCCCN3)c2c1 (centres unmarked) [Example 47-5, N-[2-(1,1-Dioxido-2,3-dihydro-1,4-benzothiazepin-4(5H)-yl)-6-methylquinolin-4-yl]piperidine-2-carboxamide]
0.426 µM	CNc1cc(N2CCS(=O)(=O)c3ccccc3C2)nc2ccc(C)cc12 [Example 3-33, 2-(1,1-Dioxido-2,3-dihydro-1,4-benzothiazepin-4(5H)-yl)-N,6-dimethylquinolin-4-amine trifluoroacetate]
0.002 µM	Cc1ccc2nc(N3CCS(=O)(=O)c4ccccc4C3)cc(NCC3(N)COC3)c2c1 [Example 2-2, N-[(3-Aminooxetan-3-yl)methyl]-2-(1,1-dioxido-2,3-dihydro-1,4-benzothiazepin-4(5H)-yl)-6-methylquinolin-4-amine]
